A short description of the series: pH of a diphosphonate solution in distilled water. To be noted: solution of one percent in distilled water. In kind it is physicochemical. The text has this: Solutions of diphosphonates will generally have a pH above that desired. For example, a solution of one percent pamidronate disodium salt in distilled water has a pH of approximately 8.3. The pH is adjusted with a suitable acid or alkali. Suitable acids include any acid such as hydrochloric or phosphoric acid. Phosphoric acid is preferred. Suitable […] include sodium hydroxide.

Structures can show the parent of a compound that is named as a salt.

Regarding `NCCC(O)(P(=O)(O)O)P(=O)(O)O` [pamidronate disodium salt], the pH of solution result was “approximately 8.3”.

(Values after patent publication US20060154898A1, “Diphosphonate solutions” (priority 2000, published 2006).)
